Measurements: ChEMBL document CHEMBL1201862, “PubChem BioAssay data set” (2004)
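Step 1: Grow cells in 96-well plates. Step 2: Expose to compound for 48 hours at 5 concentrations. Step 3: Interpolate endpoints linearly; if unreached, use highest concentration. Here, GI50 denotes the concentration required for 50% inhibition of growth.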 Activity calls are given as the source filed them. Cut-off read from the data, not from the text of the source: active = GI50 up to about 1.1 µM and inactive = higher.

How the values were obtained:
Assay in all cases: NCI anticancer screen, dose series, 48 h
TK-10 = system: TK-10
M14 = system: M14
K562 = system: K562
RPMI-8226 = system: RPMI-8226
HCT-15 = system: HCT-15
SF-295 = system: SF-295
KM12 = system: KM12
COLO 205 = system: COLO 205
CCRF-CEM = system: CCRF-CEM
SNB-19 = system: SNB-19
HCT-116 = system: HCT-116
HOP-92 = system: HOP-92
EKVX = system: EKVX
OVCAR-4 = system: OVCAR-4
RXF 393 = system: RXF 393
SK-MEL-5 = system: SK-MEL-5
NCI-H226 = system: NCI-H226

SMILES | GI50 (TK-10) | GI50 (M14) | GI50 (K562) | GI50 (RPMI-8226) | GI50 (HCT-15) [µM] | GI50 (SF-295) | GI50 (KM12) | GI50 (COLO 205) | GI50 (CCRF-CEM) | GI50 (SNB-19) | GI50 (HCT-116) | GI50 (HOP-92) | GI50 (EKVX) | GI50 (OVCAR-4) | GI50 (RXF 393) | GI50 (SK-MEL-5) | GI50 (NCI-H226)
CCCCCCCCCCCC(=O)OCC1OC(n2cc(F)c(=O)[nH]c2=O)C(N)C(OC(=O)CCCCCCCCCCC)C1O (stereo not given) | > 100 µM (inactive) | 64.4 µM (inactive) | 30.2 µM (inactive) | 54.5 µM (inactive) | > 100 | > 100 µM (inactive) | 45.4 µM (inactive) | 68.4 µM (inactive) | 37.2 µM (inactive) | > 100 µM (inactive) | 88.1 µM (inactive) | 36.2 µM (inactive) | > 100 µM (inactive) | 37.3 µM (inactive) | > 100 µM (inactive) | 0.59 µM (active) | –
O=C(O)CCCCCOc1cccnc1/C=N/NC1=NCCN1 | > 100 µM (inactive) | > 100 µM (inactive) | > 100 µM (inactive) | > 100 µM (inactive) | > 100 | > 100 µM (inactive) | > 100 µM (inactive) | > 100 µM (inactive) | > 100 µM (inactive) | > 100 µM (inactive) | > 100 µM (inactive) | > 100 µM (inactive) | > 100 µM (inactive) | > 100 µM (inactive) | > 100 µM (inactive) | > 100 µM (inactive) | > 100 µM (inactive)
O=c1nc(NC(c2ccccc2)(c2ccccc2)c2ccccc2)ccn1CCNCCn1ccc(NC(c2ccccc2)(c2ccccc2)c2ccccc2)nc1=O | 26.9 µM (inactive) | 18.3 µM (inactive) | 3.46 µM (inactive) | 2.55 µM (inactive) | > 100 | 11.5 µM (inactive) | 3.44 µM (inactive) | 10.7 µM (inactive) | 5.96 µM (inactive) | 9.27 µM (inactive) | 3.92 µM (inactive) | 5.45 µM (inactive) | 18.7 µM (inactive) | 14.2 µM (inactive) | 11.8 µM (inactive) | 5.48 µM (inactive) | 14.5 µM (inactive)
CCOC(=O)CC[C@H](NC(=O)c1nc[nH]c1[N+](=O)[O-])C(=O)OCC | > 100 µM (inactive) | > 100 µM (inactive) | > 100 µM (inactive) | > 100 µM (inactive) | > 100 | > 100 µM (inactive) | > 100 µM (inactive) | > 100 µM (inactive) | > 100 µM (inactive) | > 100 µM (inactive) | > 100 µM (inactive) | > 100 µM (inactive) | > 100 µM (inactive) | > 100 µM (inactive) | > 100 µM (inactive) | – | > 100 µM (inactive)
COc1ccc(OCC(=O)O)c2c1CCC(C(C)C)C2=O (stereo not given) | > 100 µM (inactive) | > 100 µM (inactive) | > 100 µM (inactive) | > 100 µM (inactive) | – | > 100 µM (inactive) | > 100 µM (inactive) | > 100 µM (inactive) | > 100 µM (inactive) | > 100 µM (inactive) | > 100 µM (inactive) | 80.2 µM (inactive) | > 100 µM (inactive) | > 100 µM (inactive) | – | > 100 µM (inactive) | –
CC(=O)OC(/C=C1/C=CC(=O)O1)COC(=O)c1ccccc1 (stereo not given) [ACETYLMELODORINOL] | > 31.2 µM (inactive) | > 31.2 µM (inactive) | 10.5 µM (inactive) | > 31.2 µM (inactive) | – | > 31.2 µM (inactive) | > 31.2 µM (inactive) | > 31.2 µM (inactive) | > 31.2 µM (inactive) | > 31.2 µM (inactive) | > 31.2 µM (inactive) | > 31.2 µM (inactive) | > 31.2 µM (inactive) | > 31.2 µM (inactive) | > 31.2 µM (inactive) | > 31.2 µM (inactive) | > 31.2 µM (inactive)
COC(=O)C(C(=O)c1ccccc1)C(C(=O)C(=O)Nc1ccc(OC)cc1OC)C(=O)C(=O)c1ccc(C)cc1 (stereo not given) | > 100 µM (inactive) | > 100 µM (inactive) | > 100 µM (inactive) | > 100 µM (inactive) | > 100 | > 100 µM (inactive) | > 100 µM (inactive) | > 100 µM (inactive) | > 100 µM (inactive) | > 100 µM (inactive) | > 100 µM (inactive) | – | > 100 µM (inactive) | > 100 µM (inactive) | > 100 µM (inactive) | > 100 µM (inactive) | > 100 µM (inactive)
CN(C)C(=S)/N=c1\ss/c(=N\c2ccccc2)n1-c1ccccc1 | 25.8 µM (inactive) | 14.7 µM (inactive) | 11.2 µM (inactive) | – | 23.2 | 28.6 µM (inactive) | – | – | 0.435 µM (active) | – | – | 12.5 µM (inactive) | 37.3 µM (inactive) | 0.275 µM (active) | 16.3 µM (inactive) | – | 10.7 µM (inactive)
O=C(O)CSc1nnc(-c2ccc(O)cc2)[nH]1 | > 100 µM (inactive) | > 100 µM (inactive) | > 100 µM (inactive) | > 100 µM (inactive) | > 100 | > 100 µM (inactive) | > 100 µM (inactive) | > 100 µM (inactive) | > 100 µM (inactive) | > 100 µM (inactive) | > 100 µM (inactive) | > 100 µM (inactive) | > 100 µM (inactive) | > 100 µM (inactive) | – | > 100 µM (inactive) | > 100 µM (inactive)
O=C(CCc1nnc(S)[nH]1)Nc1ccccc1Cl | > 100 µM (inactive) | > 100 µM (inactive) | > 100 µM (inactive) | > 100 µM (inactive) | 20.2 | > 100 µM (inactive) | > 100 µM (inactive) | > 100 µM (inactive) | > 100 µM (inactive) | > 100 µM (inactive) | > 100 µM (inactive) | > 100 µM (inactive) | > 100 µM (inactive) | > 100 µM (inactive) | > 100 µM (inactive) | > 100 µM (inactive) | > 100 µM (inactive)
Cc1nn2c3c(nnc2c1C#N)C(=O)NN=C(N)S3 | > 100 µM (inactive) | > 100 µM (inactive) | > 100 µM (inactive) | > 100 µM (inactive) | – | > 100 µM (inactive) | > 100 µM (inactive) | > 100 µM (inactive) | > 100 µM (inactive) | > 100 µM (inactive) | > 100 µM (inactive) | > 100 µM (inactive) | > 100 µM (inactive) | > 100 µM (inactive) | > 100 µM (inactive) | > 100 µM (inactive) | –
CC(=O)OCC1OC(OC2CC3C(C)(C)C(OC(C)=O)CC[C@]3(C)C3CCC45CC4(CC[C@H]5C(C)CC(O)[C@@H](O)C(C)(C)O)[C@]23C)C(O)C(O)C1O (stereo not given in full) | 7.76 µM (inactive) | 6.95 µM (inactive) | 5.55 µM (inactive) | 0.173 µM (active) | 7.64 | 7.93 µM (inactive) | 7.85 µM (inactive) | 7.8 µM (inactive) | 6.46 µM (inactive) | 7.08 µM (inactive) | 7.64 µM (inactive) | 7.01 µM (inactive) | 7 µM (inactive) | 6.67 µM (inactive) | 7.57 µM (inactive) | 7.13 µM (inactive) | 7.18 µM (inactive)
C1=C(c2ccccc2)CN(c2ccccc2)OC1 | > 100 µM (inactive) | 83.8 µM (inactive) | 77.4 µM (inactive) | 44.8 µM (inactive) | 77.4 | – | > 100 µM (inactive) | > 100 µM (inactive) | > 100 µM (inactive) | > 100 µM (inactive) | – | – | 86.9 µM (inactive) | > 10 µM (inactive) | 33.5 µM (inactive) | – | > 100 µM (inactive)
N#C/C(c1nc2ccccc2[nH]1)=c1\s/c(=C/c2ccc(Cl)cc2)c(=O)n1-c1ccccc1 | > 100 µM (inactive) | > 100 µM (inactive) | > 100 µM (inactive) | > 100 µM (inactive) | > 100 | – | > 100 µM (inactive) | > 100 µM (inactive) | > 100 µM (inactive) | > 100 µM (inactive) | > 100 µM (inactive) | > 100 µM (inactive) | > 100 µM (inactive) | > 100 µM (inactive) | – | > 100 µM (inactive) | > 100 µM (inactive)
CCC(/C(=N/NC(=O)C[N+](C)(C)C)c1ccccc1)C1OC(=O)c2ccccc21 (stereo not given) | > 100 µM (inactive) | > 100 µM (inactive) | > 100 µM (inactive) | > 100 µM (inactive) | > 100 | > 100 µM (inactive) | > 100 µM (inactive) | > 100 µM (inactive) | > 100 µM (inactive) | > 100 µM (inactive) | > 100 µM (inactive) | > 100 µM (inactive) | – | > 100 µM (inactive) | > 100 µM (inactive) | > 100 µM (inactive) | > 100 µM (inactive)
c1ccc2c3c([nH]c2c1)C1(CCCCC1)c1c([nH]c2ccccc12)C31CCCCC1 | 30.9 µM (inactive) | 30 µM (inactive) | 35.6 µM (inactive) | 56.8 µM (inactive) | > 100 | 24.7 µM (inactive) | > 100 µM (inactive) | 37.9 µM (inactive) | 79.8 µM (inactive) | 54.5 µM (inactive) | 15.7 µM (inactive) | 20.4 µM (inactive) | 26.2 µM (inactive) | 10.6 µM (inactive) | 25.4 µM (inactive) | 26.2 µM (inactive) | 27.5 µM (inactive)
O=C(CSc1nnc(-c2ccc(/N=C\c3ccc(Cl)cc3)cc2)o1)Nc1ccccc1[N+](=O)[O-] | > 100 µM (inactive) | > 100 µM (inactive) | > 100 µM (inactive) | > 100 µM (inactive) | > 100 | > 100 µM (inactive) | > 100 µM (inactive) | > 100 µM (inactive) | > 100 µM (inactive) | > 100 µM (inactive) | > 100 µM (inactive) | – | > 100 µM (inactive) | > 100 µM (inactive) | 94.6 µM (inactive) | > 100 µM (inactive) | > 100 µM (inactive)
